Measured values: US10851401B2, “Broth microdilution method for evaluating and determining minimal inhibitory concentration of antibacterial polypeptides” (priority 2016, dated 2020)

Tested on: Staphylococcus aureus strains including MSSA and MRSA strains
Test: Vancomycin in modified BMD method versus standard unsupplemented CA-MHB (FIG. 10)
Format: cell-based
Conditions: comparison of the two media
Experimental: FIG. 10 depicts vancomycin activity assessed using the modified BMD method in comparison to method with standard CAMHB broth unsupplemented. Various Staphylococcus aureus strains including MSSA and MRSA strains were evaluated.
Standard antibiotic vancomycin was evaluated in the modified BMD method. The MIC50, MIC90 and range were equivalent using standard CA-MHB versus CA-MHB supplemented with horse serum and DTT (FIG. 10).

CN[C@H](CC(C)C)C(=O)N[C@H]1C(=O)N[C@@H](CC(N)=O)C(=O)N[C@H]2C(=O)N[C@H]3C(=O)N[C@H](C(=O)N[C@H](C(=O)O)c4cc(O)cc(O)c4-c4cc3ccc4O)[C@H](O)c3ccc(c(Cl)c3)Oc3cc2cc(c3O[C@@H]2O[C@H](CO)[C@@H](O)[C@H](O)[C@H]2O[C@H]2C[C@](C)(N)[C@H](O)[C@H](C)O2)Oc2ccc(cc2Cl)[C@H]1O [vancomycin]
MIC50, MIC90 and range, standard CA-MHB versus CA-MHB supplemented with horse serum and DTT: equivalent
